According to US8188098B2, “GPR119 receptor agonists” (Hoffmann-La Roche Inc., priority 2008, dated 2012):

These compounds were tested against T1, GPR119 receptor (Mesocricetus auratus, UniProt A0A1U8CD06) (assay: cAMP assay in HIT-T15 hamster pancreatic islet cells (functional agonist activity)). Settings: HIT-T15 cells endogenously expressing GPR119; 30 min at 25° C.; intracellular cAMP.
T1 construct: which endogenously express the GPR119 receptor; host or cells: HIT-T15 hamster pancreatic islet cells
T1 sequence (A0A1U8CD06 1-334): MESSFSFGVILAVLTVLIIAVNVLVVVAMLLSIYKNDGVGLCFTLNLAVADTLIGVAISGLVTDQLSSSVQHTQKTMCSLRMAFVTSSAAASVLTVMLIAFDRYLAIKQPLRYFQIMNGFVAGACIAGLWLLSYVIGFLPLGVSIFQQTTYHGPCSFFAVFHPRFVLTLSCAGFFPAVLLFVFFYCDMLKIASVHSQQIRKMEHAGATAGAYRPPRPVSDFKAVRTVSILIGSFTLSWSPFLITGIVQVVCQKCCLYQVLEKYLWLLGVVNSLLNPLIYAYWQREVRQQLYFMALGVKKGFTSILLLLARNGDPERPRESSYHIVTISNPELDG
Assay type: cell-based
Experimental: The functional agonist activities of compounds of the invention were characterized using a cAMP assay in HIT-T15 hamster pancreatic islet cells (American Type Culture Collection, Manassas, Va., USA) which endogenously express the GPR119 receptor. The cells were cultured in Kaighn's modification of Ham's F12 medium (Invitrogen Corporation, Carlsbad, Calif., USA) containing 10% horse serum, 2.5% FBS, and 1% Pen/Strep and grown in 225 cm^2 tissue culture flasks until they reached 75-85% confluence.
The cells were harvested 24 h prior to assay with 5 ml Versene®, washed with Kaighn/F12 medium and then plated into white 384-well plates (9000 cells/well) containing Kaighn/F12 medium. Prior to assay, the culture medium was replaced with a Kaighn/F12 medium without phenol red (50 μL/well) containing 0.5 mM 3-isobutyl-1-methylxanthine, 0.5 mg/ml BSA. The cells were incubated in the dark for 30 min at 25° C. in the absence or presence of varying concentrations of agonist (1 μL, 100% DMSO). The incubation media was discarded and replaced with the assay lysis buffer (50 μL/well) provided in the Tropix cAMP-Screen® kit (Applied Biosystems, Foster City, Calif., USA) and the plates incubated for 45 min at 37° C. The intracellular levels of cAMP generated in the HIT-T 15 cells were measured using the Tropix kit. In brief, 20 μL of the lysate was transferred into pre-coated antibody plates (384-well; Tropix kit) along with 10 μL of alkaline phosphatase conjugate and 20 μL of anti-cAMP antibody and the plates were incubated for 1 h at room temperature while shaking. The plates were then washed 5 times with wash buffer (70 μL) and tapped dry. CSPD®/Sapphire-II™ RTU substrate/enhancer solution (Applied Biosystems, Foster City, Calif., USA; 30 μL) was added and the plates were incubated for 45 min at room temperature while shaking. The signal generated was measured using a Wallac Victor V Luminometer (PerkinElmer Life And Analytical Sciences, Inc., Waltham, Mass., USA; 1 sec/well). EC50 values were calculated using the XLFit program (ID Business Solutions Ltd., Guildford, Surrey, UK).

Row | SMILES | EC50
1 | CC(C)(C)OC(=O)N1CCCC(n2ncc3c(Oc4ccc(S(C)(=O)=O)cc4)ncnc32)C1 (racemic) [Example 87, 3-[4-(4-Methanesulfonyl-phenoxy)-pyrazolo[3,4-d]pyrimidin-1-yl]-piperidine-1-carboxylic acid tert-butyl ester] | 0.37 µM
2 | CC(C)(C)OC(=O)N1CCCC(n2ncc3c(Oc4ccc(S(C)(=O)=O)cc4)ncnc32)C1 (single isomer, unassigned) [Example 88] | 0.045 µM
3 | CC(C)(C)OC(=O)N1CCCC(n2ncc3c(Oc4ccc(S(C)(=O)=O)cc4)ncnc32)C1 (single isomer, unassigned) [Example 89] | 0.21 µM
4 | CC(C)OC(=O)N1CCC(n2ncc3c(Nc4cc(F)c(F)cc4F)ncnc32)CC1 [Example 2, 4-[4-(2,4,5-Trifluoro-phenylamino)-pyrazolo[3,4-d]pyrimidin-1-yl]-piperidine-1-carboxylic acid isopropyl ester] | 3.1 µM
5 | CC(C)(C)OC(=O)N1CCC(n2ncc3c(Nc4cc(F)c(F)cc4F)ncnc32)CC1 [Example 4, 4-[4-(2,4,5-Trifluoro-phenylamino)-pyrazolo[3,4-d]pyrimidin-1-yl]-piperidine-1-carboxylic acid tert-butyl ester] | 0.53 µM
6 | CC(C)(C)OC(=O)N1CCC(n2ncc3c(Nc4ccc(S(C)(=O)=O)cc4)ncnc32)CC1 [Example 5, 4-[4-(4-Methanesulfonyl-phenylamino)-pyrazolo[3,4-d]pyrimidin-1-yl]-piperidine-1-carboxylic acid tert-butyl ester] | 1.5 µM
7 | Cc1ncccc1Nc1ncnc2c1cnn2C1CCN(C(=O)OC(C)(C)C)CC1 [Example 7, 4-[4-(2-Methyl-pyridin-3-ylamino)-pyrazolo[3,4-d]pyrimidin-1-yl]-piperidine-1-carboxylic acid tert-butyl ester] | 2.2 µM
8 | Cc1nc(S(C)(=O)=O)ccc1Nc1ncnc2c1cnn2C1CCN(C(=O)OC(C)(C)C)CC1 [Example 8, 4-[4-(6-Methanesulfonyl-2-methyl-pyridin-3-ylamino)-pyrazolo[3,4-d]pyrimidin-1-yl]-piperidine-1-carboxylic acid tert-butyl ester] | 0.76 µM
9 | Cc1nc(-n2cncn2)ccc1Nc1ncnc2c1cnn2C1CCN(C(=O)OC(C)(C)C)CC1 [Example 9, 4-[4-(2-Methyl-6-[1,2,4]triazol-1-yl-pyridin-3-ylamino)-pyrazolo[3,4-d]pyrimidin-1-yl]-piperidine-1-carboxylic acid tert-butyl ester] | 2.4 µM
10 | CC(C)(C)OC(=O)N1CCC(n2ncc3c(N4CCc5cc(S(C)(=O)=O)ccc54)ncnc32)CC1 [Example 10, 4-[4-(5-Methanesulfonyl-2,3-dihydro-indol-1-yl)-pyrazolo[3,4-d]pyrimidin-1-yl]-piperidine-1-carboxylic acid tert-butyl ester] | 0.46 µM
11 | CS(=O)(=O)c1ccc(Nc2ncnc3c2cnn3C2CCN(Cc3ccccc3)CC2)c(F)c1 [Example 11, [1-(1-Benzyl-piperidin-4-yl)-1H-pyrazolo[3,4-d]pyrimidin-4-yl]-(2-fluoro-4-methanesulfonylphenyl)-amine] | 2.5 µM
12 | CCOC(=O)N1CCC(n2ncc3c(Oc4ccc(S(C)(=O)=O)cc4)ncnc32)CC1 [Example 13, 4-[4-(4-Methanesulfonyl-phenoxy)-pyrazolo[3,4-d]pyrimidin-1-yl]-piperidine-1-carboxylic acid ethyl ester] | 0.65 µM
13 | CCOC(=O)N1CCC(n2ncc3c(Oc4ccc(S(C)(=O)=O)cc4F)ncnc32)CC1 [Example 14, 4-[4-(2-Fluoro-4-methanesulfonyl-phenoxy)-pyrazolo[3,4-d]pyrimidin-1-yl]-piperidine-1-carboxylic acid ethyl ester] | 0.14 µM
14 | CC(C)OC(=O)N1CCC(n2ncc3c(Oc4ccccc4)ncnc32)CC1 [Example 15, 4-(4-Phenoxy-pyrazolo[3,4-d]pyrimidin-1-yl)-piperidine-1-carboxylic acid isopropyl ester] | 2 µM
15 | CC(C)OC(=O)N1CCC(n2ncc3c(Oc4cc(F)c(F)cc4F)ncnc32)CC1 [Example 16, 4-[4-(2,4,5-Trifluoro-phenoxy)-pyrazolo[3,4-d]pyrimidin-1-yl]-piperidine-1-carboxylic acid isopropyl ester] | 0.21 µM
16 | Cc1nn(C2CCN(C(=O)OC(C)C)CC2)c2ncnc(Oc3cc(F)c(F)cc3F)c12 [Example 17, 4-[3-Methyl-4-(2,4,5-trifluoro-phenoxy)-pyrazolo[3,4-d]pyrimidin-1-yl]-piperidine-1-carboxylic acid isopropyl ester] | 0.7 µM
17 | CCOc1ccc(Oc2ncnc3c2cnn3C2CCN(C(=O)OC(C)C)CC2)c(F)c1 [Example 18, 4-[4-(4-Ethoxy-2-fluoro-phenoxy)-pyrazolo[3,4-d]pyrimidin-1-yl]-piperidine-1-carboxylic acid isopropyl ester] | 0.38 µM
18 | CC(C)OC(=O)N1CCC(n2ncc3c(Oc4ccccc4C#N)ncnc32)CC1 [Example 19, 4-[4-(2-Cyano-phenoxy)-pyrazolo[3,4-d]pyrimidin-1-yl]-piperidine-1-carboxylic acid isopropyl ester] | 0.71 µM
19 | CC(C)OC(=O)N1CCC(n2ncc3c(Oc4c(C#N)ccc(F)c4F)ncnc32)CC1 [Example 20, 4-[4-(6-Cyano-2,3-difluoro-phenoxy)-pyrazolo[3,4-d]pyrimidin-1-yl]-piperidine-1-carboxylic acid isopropyl ester] | 0.57 µM
20 | Cc1nn(C2CCN(C(=O)OC(C)C)CC2)c2ncnc(Oc3ccc(S(C)(=O)=O)cc3)c12 [Example 22, 4-[4-(4-Methanesulfonyl-phenoxy)-3-methyl-pyrazolo[3,4-d]pyrimidin-1-yl]-piperidine-1-carboxylic acid isopropyl ester] | 0.21 µM
21 | CC(C)OC(=O)N1CCC(n2ncc3c(Oc4ccc(S(C)(=O)=O)cc4F)ncnc32)CC1 [Example 23, 4-[4-(2-Fluoro-4-methanesulfonyl-phenoxy)-pyrazolo[3,4-d]pyrimidin-1-yl]-piperidine-1-carboxylic acid isopropyl ester] | 0.11 µM
22 | CC(C)OC(=O)N1CCC(n2ncc3c(Oc4ccc(S(C)(=O)=O)c(F)c4)ncnc32)CC1 [Example 24, 4-[4-(3-Fluoro-4-methanesulfonyl-phenoxy)-pyrazolo[3,4-d]pyrimidin-1-yl]-piperidine-1-carboxylic acid isopropyl ester] | 0.098 µM
23 | CC(=O)Nc1ccc(Oc2ncnc3c2cnn3C2CCN(C(=O)OC(C)C)CC2)cc1 [Example 25, 4-[4-(4-Acetylamino-phenoxy)-pyrazolo[3,4-d]pyrimidin-1-yl]-piperidine-1-carboxylic acid isopropyl ester] | 0.46 µM
24 | Cc1nnnn1-c1ccc(Oc2ncnc3c2cnn3C2CCN(C(=O)OC(C)C)CC2)cc1 [Example 26, 4-{4-[4-(5-Methyl-tetrazol-1-yl)-phenoxy]-pyrazolo[3,4-d]pyrimidin-1-yl}-piperidine-1-carboxylic acid isopropyl ester] | 0.95 µM
25 | Cc1ncccc1Oc1ncnc2c1cnn2C1CCN(C(=O)OC(C)C)CC1 [Example 27, 4-[4-(2-Methyl-pyridin-3-yloxy)-pyrazolo[3,4-d]pyrimidin-1-yl]-piperidine-1-carboxylic acid isopropyl ester] | 0.85 µM
